# From US9527879B2, “Aster glehni extracts, fractions or compounds isolated therefrom for the treatment or prevention of hyperuricemia or gout” (KOREA INSTITUTE OF SCIENCE AND TECHNOLOGY, priority 2014, dated 2016)
# Molecular target: xanthine oxidase (UniProt P80457)
# Test: Inhibition of production of uric acid by xanthine/xanthine oxidase
# Format: biochemical
# Conditions: xanthine oxidase 0.024 units/mL, 100 μM xanthine, pH 7.5, 25° C.; mean ± SEM of triplicate experiments
# Description: Uric acid is produced from xanthine oxidation by xanthine oxidase.
# Specifically, the sample and xanthine oxidase (0.024 units/mL) were mixed in 100 mM phosphate buffer (pH 7.5) and preincubated at 25° C. for 10 min. The reaction was initiated by the addition of 100 μM xanthine and incubation was further carried out at 25° C. for 30 min. […] The inhibition of uric acid production A (%) was calculated according to Equation 1. […] [Equation 1]
row,IC50,Compound
1,93 ± 1.7 µM,"C[C@H](/C=C/[C@@]1(O)[C@H](C)CC(=O)CC1(C)C)OC1OC(COC(=O)/C=C/c2ccc(O)c(O)c2)C(O)C(O)C1O (stereo partly shown) [Compound 1, 6′-O-caffeoylampelopsisionoside]"
2,73.2 ± 5.1 µM,"CC(=O)/C=C/C1=C(C)C(O)C(O[C@@H]2OC(COC(=O)/C=C/c3ccc(O)c(O)c3)[C@@H](O)C(O)C2O)CC1(C)C (stereo partly shown) [Compound 3, 6′-O-Caffeoylsonchuinoside C]"
3,71.1 ± 3.9 µM,"COc1cc(CCCO)cc(OC)c1O[C@@H]1OC(COC(=O)/C=C/c2ccc(O)c(O)c2)[C@@H](O)C(O)C1O (stereo partly shown) [Compound 4, 6′-O-Caffeoyldihydrosyringin]"
4,80 ± 4.9 µM,C/C(=C\CO)CO[C@@H]1OC(COC(=O)/C=C/c2ccc(O)c(O)c2)[C@@H](O)C(O)C1O (stereo partly shown) [Compound 5]
